Assays:
[1] = biological target: mu opioid receptor (Homo sapiens, UniProt P35372); test: opioid receptor binding assay (Ki), mu
[2] = biological target: T1, cloned human kappa opioid receptor (Homo sapiens, UniProt P41145); test: GTP-γ-S binding assay, antagonist potency (Kb), kappa; assay type: biochemical; details: functional antagonist potency vs U69593 300 nM; Cheng-Prusoff
T1 construct: expressed in transfected cells
Experimental: (§1) The functional antagonist potency (Kb) of the sample compounds was determined using the GTPγS binding assay. GTPgS-based functional assays provide an in vitro measure of the activity of opioid agonists and antagonists. Opioid reference compounds or test compound are incubated with membrane homogenate from cells expressing the cloned human mu, kappa or delta opioid receptor and radiolabeled [35S]GTPgS. If the compound activates the opioid receptor, an increase in the binding of radiolabeled GTPgS is observed. […] These tests provide an in vitro measurement of the activity of the compound at human opioid receptors.
(§2) An SPA-based GTP-γ-S assay format was developed based on previous opioid (Emmerson et al., J. Pharm Exp Ther 278,1121,1996; Horng et al., Society for Neuroscience Abstracts, 434.6, 2000) and muscarinic (DeLapp et al., JPET 289, 946, 1999) assay formats. Membranes were resuspended in 20 mM HEPES, 100 mM NaCl, 5 mM MgCl2, 1 mM DTT, and 1 mM EDTA. Fifty (50) […] of GTP-γ-[35S], compound, membrane suspension (20 microgram/well), and wheat germ agglutinin coated SPA beads (1 mg/well) were added to clear bottom 96 well assay plates. GDP ([…]) was added to the membrane solution prior to addition to the assay plates. Plates were sealed and incubated for four hours at room temperature then placed in a refrigerator overnight to allow the beads to settle. Signal stability at 4° C. was determined to be >60 hours. Plates were warmed to room temperature and counted in a Wallac Microbeta scintillation counter. For antagonist assays, specific agonists were added at the following concentrations: (MOR) DAMGO 1 micromolar, (DOR) DPDPE 30 nM, (KOR) U69593 300 nM. Kb's were determined by Cheng-Prusoff equation (see Cheng and Prusoff, Biochem. Pharmacol. 22, 3099, 1973).

[3] = biological target: kappa opioid receptor (Homo sapiens, UniProt P41145); test: opioid receptor binding assay (Ki), kappa
Chain of kappa opioid receptor (P41145 whole entry): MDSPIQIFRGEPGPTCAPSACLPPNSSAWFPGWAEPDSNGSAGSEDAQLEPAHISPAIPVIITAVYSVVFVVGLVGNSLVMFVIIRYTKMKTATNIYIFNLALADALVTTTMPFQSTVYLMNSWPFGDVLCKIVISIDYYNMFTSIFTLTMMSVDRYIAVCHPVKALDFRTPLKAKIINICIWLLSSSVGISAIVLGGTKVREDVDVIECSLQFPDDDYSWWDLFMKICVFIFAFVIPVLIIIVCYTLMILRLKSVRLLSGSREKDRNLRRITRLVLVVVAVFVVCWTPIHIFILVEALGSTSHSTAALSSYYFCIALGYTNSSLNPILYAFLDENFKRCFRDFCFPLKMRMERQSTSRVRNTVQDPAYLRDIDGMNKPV

[4] = biological target: T2, cloned human delta opioid receptor (Homo sapiens, UniProt P41143); test: GTP-γ-S binding assay, antagonist potency (Kb), delta; assay type: biochemical; details: functional antagonist potency vs DPDPE 30 nM; Cheng-Prusoff
T2 construct: expressed in transfected cells
T2 sequence (P41143 whole entry): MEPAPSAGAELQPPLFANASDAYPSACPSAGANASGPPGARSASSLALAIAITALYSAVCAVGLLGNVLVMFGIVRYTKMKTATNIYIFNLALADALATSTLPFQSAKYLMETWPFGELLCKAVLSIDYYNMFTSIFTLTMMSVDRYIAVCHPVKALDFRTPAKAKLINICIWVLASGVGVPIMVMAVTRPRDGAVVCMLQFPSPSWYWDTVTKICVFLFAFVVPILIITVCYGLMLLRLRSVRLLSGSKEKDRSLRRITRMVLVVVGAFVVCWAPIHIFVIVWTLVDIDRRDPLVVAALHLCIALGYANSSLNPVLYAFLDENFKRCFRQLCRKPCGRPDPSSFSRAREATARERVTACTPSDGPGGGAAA
Experimental: as §1, §2

[5] = biological target: T3, cloned human mu opioid receptor (Homo sapiens, UniProt P35372); test: GTP-γ-S binding assay, antagonist potency (Kb), mu; assay type: biochemical; details: functional antagonist potency vs DAMGO 1 micromolar; Cheng-Prusoff
T3 construct: expressed in transfected cells
T3 sequence (P35372 whole entry): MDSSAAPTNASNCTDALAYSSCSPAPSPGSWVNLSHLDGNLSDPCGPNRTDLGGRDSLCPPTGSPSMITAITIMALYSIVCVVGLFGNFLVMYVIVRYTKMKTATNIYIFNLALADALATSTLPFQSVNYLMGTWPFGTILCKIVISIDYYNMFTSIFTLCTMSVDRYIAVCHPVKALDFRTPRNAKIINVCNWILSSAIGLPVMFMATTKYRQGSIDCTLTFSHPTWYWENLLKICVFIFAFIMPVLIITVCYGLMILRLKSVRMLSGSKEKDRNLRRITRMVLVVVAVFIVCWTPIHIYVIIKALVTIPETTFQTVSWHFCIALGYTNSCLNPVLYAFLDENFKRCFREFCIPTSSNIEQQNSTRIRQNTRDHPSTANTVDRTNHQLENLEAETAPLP
Experimental: as §1, §2

[6] = biological target: delta opioid receptor (Homo sapiens, UniProt P41143); test: opioid receptor binding assay (Ki), delta
Chain of delta opioid receptor (P41143 whole entry): as the sequence (P41143 whole entry) above

T1 sequence (P41145 whole entry): as the sequence (P41145 whole entry) above
Chain of mu opioid receptor (P35372 whole entry): as the sequence (P35372 whole entry) above

SMILES	Ki [1] [nM]	Kb [2] [nM]	Ki [3] [nM]	Kb [4] [nM]	Kb [5] [nM]	Ki [6] [nM]
NC(=O)c1ccc(CN2CCc3cc(CNCCc4cccs4)ccc32)cc1 [Example 4, 4-{5-[(2-Thiophen-2-yl-ethylamino)-methyl]-2,3-dihydro-indol-1-ylmethyl}-benzamide]	13.4	> 42	226	19.2	2.1	111
CC(C)(C)CCNCc1ccc2c(c1)CCN2Cc1ccc(C(N)=O)cc1 [Example 6, 4-{5-[(3,3-Dimethyl-butylamino)-methyl]-2,3-dihydro-indol-1-ylmethyl}-benzamide]	20.5	21.4	340	20.3	4	193
NC(=O)c1ccc(Cn2ccc3cc(CNCCCc4ccccc4)ccc32)cc1 [Example 8, 4-{5-[(3-Phenyl-propylamino)-methyl]-indol-1-ylmethyl}-benzamide]	59.3		304			633
COc1ccc(CCNCc2ccc3c(ccn3Cc3ccc(C(N)=O)cc3)c2)cc1 [Example 11, 4-(5-{[2-(4-Methoxy-phenyl)-ethylamino]-methyl}-indol-1-ylmethyl)-benzamide]	319	> 42	1110	> 50	8.4	2550

Further lines, results first:

Ki [1] [nM]	Kb [2] [nM]	Ki [3] [nM]	Kb [4] [nM]	Kb [5] [nM]	Ki [6] [nM]	SMILES
18.1	59.9	362	21.7	4.2	170	CC(C)CCNCc1ccc2c(ccn2Cc2ccc(C(N)=O)cc2)c1 [Example 1, 4-{5-[(3-Methyl-butylamino)-methyl]-indol-1-ylmethyl}-benzamide]
21.3	50.1	411	15	2	154	NC(=O)c1ccc(Cn2ccc3cc(CNCCc4cccs4)ccc32)cc1 [Example 2, 4-{5-[(2-Thiophen-2-yl-ethylamino)-methyl]-indol-1-ylmethyl}-benzamide]
15.6	50.5	106	19.2	4.4	98.2	CC(C)(C)CCNCc1ccc2c(ccn2Cc2ccc(C(N)=O)cc2)c1 [Example 3, 4-{5-[(3,3-Dimethyl-butylamino)-methyl]-indol-1-ylmethyl}-benzamide]
24.5	> 42	387	24.3	3.3	259	CC(C)CCNCc1ccc2c(c1)CCN2Cc1ccc(C(N)=O)cc1 [Example 5, 4-{5-[(3-Methyl-butylamino)-methyl]-2,3-dihydro-indol-1-ylmethyl}-benzamide]
22.1	> 35	345	27.4	5.8	176	CCCCCCNCc1ccc2c(ccn2Cc2ccc(C(N)=O)cc2)c1 [Example 7, 4-(5-Hexylaminomethyl-indol-1-ylmethyl)-benzamide]
20.8	> 35	332	20.7	6.2	144	NC(=O)c1ccc(Cn2ccc3cc(CNCCc4ccccc4F)ccc32)cc1 [Example 9, 4-(5-{[2-(2-Fluoro-phenyl)-ethylamino]-methyl}-indol-1-ylmethyl)-benzamide]
478		3190			> 5000	NC(=O)c1ccc(Cn2ccc3cc(CNCCO)ccc32)cc1 [Example 10, 4-{5-[(2-Hydroxy-ethylamino)-methyl]-indol-1-ylmethyl}-benzamide]

— patent US8088800B2, “4-(5-aminomethyl)-indole-1-ylmethyl)-benzamide derivatives and related compounds as opioid receptor antagonists for the treatment of obesity” (Eli Lilly and Company, priority 2004, dated 2012)
